Results taken from patent US20150141375A1 (priority 2009, published 2015).
Where “and” joins values, the source holds several entries; their conditions need not be identical. Equal values may be shown once. Entries after “also recorded” stand apart in the source; their conditions may differ.

How the values were obtained:
[1] = system: BK Virus; test: BK virus replication in RPTECs, viral DNA by qPCR after 5 days; assay type: cell-based; details: Betapolyomavirus hominis, RPTEC
Procedure: To test the ability of CMX001 to inhibit replication of BK virus, stocks of BK virus were prepared in HFF cells and dilutions of the virus stocks were used to infect primary human renal tubular epithelial cells (RPTECs). Drug dilutions were then added to the wells containing the infected cells and the plates were incubated for 5 days. Total DNA was prepared from the plates and viral DNA was quantified by qPCR.

[2] = system: BKV(Dunlop); test: BKV(Dunlop) replication in primary human RPTECs (qPCR, RT-qPCR, western blot, immunofluorescence); assay type: cell-based, BK virus; details: for antiviral activity of stored stock compared to freshly prepared drug: tested at 0.31 uM
Procedure: RPTECs were infected with BKV(Dunlop). CMX001 was added before and 2 h postinfection (hpi). Cells and supernatants were harvested 24-72 hpi. BKV replication was examined by TaqMan assays, western blotting, IF staining and viability of RPTECs was examined by WST-1 assay, BrdU incorporation and a TaqMan assay.
Primary human renal proximal tubule epithelial cells (RPTECs), BKV(Dunlop) and all methods as previously described by Bernhoff et al (See Bernhoff et al., Cidofovir inhibits polyomavirus BK replication in human renal tubular cells downstream of viral early gene expression, Am J Transplant 8, 1413-1422 (2008).) Only one exception, quantitative PCR (qPCR) to quantify intracellular or extracellular BKV DNA load was performed with a different primer/probe set also targeting the LTag gene (See Hirsch, et al., J. Prospective study of polyomavirus type BK replication and nephropathy in renal-transplant recipients, N Engl J Med., 347, 488-496 (2002)). Before each experiment, CMX001 was freshly dissolved to 1 mg/ml in methanol/water/ammonium hydroxide (50/50/2). It was further diluted in RPTEC growth medium.
Before each experiment, CMX001 was freshly dissolved to 1 mg/ml in methanol/water/ammonium hydroxide (50/50/2) and further diluted in RPTEC growth medium. About 50% confluent RPTECs were infected with BKV (Dunlop) MOI 1. After 2 h incubation at 37° C., the virus was replaced with fresh medium with or without CMX001 unless otherwise stated.
At 24, 48 and 72 hpi cells were lysed and total RNA extracted using the mirVana PARIS kit (Ambion). RNA samples were treated with DNase turbo (Ambion) to remove residual DNA before the RNA quality was checked by agarose gel electrophoresis and RNA concentration was determined. cDNA was generated from 250 ng RNA per sample using the High Capacity cDNA kit (Applied Biosystems).
To assay extracellular BKV loads, cell culture supernatants were harvested at 24, 48 and 72 hpi and frozen in −70° C. until automatic extraction by a robot (GenoM-48, Qiagen, www.qiagen.com). For intracellular BKV loads, cells were washed, trypsinized and pelleted at 220 g for 10 min, resuspended in G2 buffer from the MagAttract DNA Mini M48 kit (Qiagen) and frozen at −70° C. until extraction with the same robot.
To quantify intracellular or extracellular BKV DNA load, a quantitative PCR (qPCR) with primers and probe targeting the large T-antigen (LT-ag) gene was used. For normalization of intracellular BKV DNA each sample was analyzed in parallel by the qPCR for the gene for aspartoacylase (ACY) to correct for cellular DNA.
Cells were lysed in Cell Disruption buffer (mirVana PARIS kit, Ambion) 24, 48 and 72 hpi and stored at −70° C. until separation with SDS polyacrylamidegel electrophoresis (SDS-PAGE) followed by blotting onto PVDF membrane. Detection of BKV and cellular proteins was performed with polyclonal rabbit antiserum directed against LT-ag (1:2000), VP1 (1:10000), or agno (1:10000) (1, 27) and a monoclonal mouse antibody directed against GAPDH (Ab8245; 1:5000, Abcam, www.abcam.com) followed by anti-rabbit and anti-mouse infrared dye-labeled secondary antibodies (IR Dye 800, Rockland, www.rockland-inc.com and Alexa Fluor 680, Invitrogen, www.invitrogen.com) both 1:5000 before detection with Licor Odyssey Infrared detection system.
Cells were washed in PBS, methanol fixed, blocked with 3% goat-serum in PBS for 30 min, followed by subsequently incubation with primary (37° C.) and secondary (r.t.) antibodies for 30 min. Primary antibodies were monoclonal anti-SV40 LT-ag antibody (Ab-2 Pab416; 1:100, Chemicon, www.chemicon.com) and polyclonal rabbit antiserum directed against agno or VP1 (both 1:1000). The secondary antibodies were anti-mouse conjugated with AlexaFluor 568 and anti-rabbit conjugated with AlexaFluor 488 (1:500; Molecular Probes, www.invitrogen.com). Nuclei were labeled with DRAQ5™ (Biostatus, www.biostatus.com). […]

[3] = Safety of CMX001 in HSCT and renal transplant recipients with BK virus viruria (blinded); assay type: in vivo, human; set-up: Mean ALT: unit not given here
From the text: Safety and tolerability of CMX001 in HSCT and renal transplant recipients with BK virus viruria is studied. The safety and tolerability of CMX001 in a post-transplant population is investigated and levels of BKV DNA in urine and plasma over time is monitored.
Twelve HSCT and twelve renal transplant recipients randomized 2:1 (CMX001:Placebo)
BKV viruria >10^4, renal transplant recipients allowed with viremia <10^4
Concomitant valganciclovir/ganciclovir excluded for HSCT recipients only Dosing Schedule: […]

[4] = renal transplant subjects, Day 0
[5] = renal transplant subjects, Day 7
[6] = renal transplant subjects, Day 14
[7] = renal transplant subjects, Day 21
[8] = renal transplant subjects, Day 28
[9] = stem cell transplant subjects, Day 0
[10] = stem cell transplant subjects, Day 7
[11] = stem cell transplant subjects, Day 14
[12] = stem cell transplant subjects, Day 21
[13] = stem cell transplant subjects, Day 28

CCCCCCCCCCCCCCCCOCCCOP(=O)(O)CO[C@H](CO)Cn1ccc(N)nc1=O [CMX001, Hexadecyloxypropyl-cidofovir]
EC50 ([1]; Virus Dilution 1:10): 16 nM | EC50 ([1]; Virus Dilution 1:50): 3.5 nM | EC50 ([1]; Virus Dilution 1:100): 3.7 nM | BKV-infected cells, immunofluorescence ([2]; 10 μM CMX001, 72 hpi): no BKV-infected cell was observed | IC90 ([2]; Betapolyomavirus hominis, RPTEC, RPTECs, 72 h p.i., viral input subtracted, read-out: IC90, extracellular BKV load): 310 nM | reduction of late protein expression ([2]; CMX001 0.31 μM): about 70% | reduction of BKV load at 96 hpi ([2]; CMX001 0.31 μM for 24 h): approximately 90% | effect on early gene (LT-ag) expression ([2]; CMX001 0.31 μM, 24 hpi): no effect; also recorded: No difference | reduction of late gene expression ([2]; CMX001 0.31 μM, 48 and 72 hpi): 70-90% | reduction of BKV DNA replication (intracellular BKV load) ([2]; CMX001 0.31 μM, 48 hpi): 94% and 90% | reduction of LT-ag mRNA ([2]; CMX001 0.31 μM, 48 hpi): 33% | reduction of agno, western blotting ([2]; CMX001 0.31 μM, 48 hpi): 97% | reduction of late mRNA levels ([2]; CMX001 0.31 μM, 48 hpi): 93% | reduction of BKV DNA replication (intracellular BKV load) ([2]; CMX001 0.31 μM, 72 hpi): 63% and 91% | reduction of LT-ag mRNA ([2]; CMX001 0.31 μM, 72 hpi): 64% | reduction of agno, western blotting ([2]; CMX001 0.31 μM, 72 hpi): 96% | reduction of late mRNA levels ([2]; CMX001 0.31 μM, 72 hpi): 82% | decrease of VP1, western blotting ([2]; CMX001 0.31 μM, 48 h p.i.): 86% and 85% | reduction of LTag staining ([2]; CMX001 0.31 μM, 48 h p.i.): 33% | decrease of VP1, western blotting ([2]; CMX001 0.31 μM, 72 h p.i.): 63% and 96% | reduction of LTag staining ([2]; CMX001 0.31 μM, 72 h p.i.): 30% | decrease in BKV agnoprotein expressing cells ([2]; CMX001 0.31 uM, immunofluorescence 72 h p.i.): approximately 60% | exposure time for IC-90 of BKV progeny loads at 96 hpi ([2]; CMX001 0.31 μM, CDV 40 μg/mL): 24 h | reduction of viral load by pre-treatment ([2]; pre-treatment 23-24 h until one hour before infection, BKV load 72 h p.i.): about 50% | effect of pre-treatment on BKV load ([2]; pre-treatment 4 hours, ending 20 hours before infection): hardly any effect; also recorded: did not inhibit BKV replication | antiviral activity of stored stock compared to freshly prepared drug ([2]; stock 1 mg/ml one week at 4° C.): less than 60% | antiviral activity of stored stock compared to freshly prepared drug ([2]; stock 1 mg/ml one week at −20° C.): approximately 90% | Mean Serum creatinine ([3]; renal transplant subjects, 40 mg/wk×5, Day 0): 1.3 mg/dL | Mean ALT [3, 4]: 19.3 | Mean absolute Neutrophil count [3, 4]: 3.16 1000 per cu mm | Mean ALT [3, 5]: 22.4 | Mean Serum creatinine [3, 5]: 1.3 mg/dL | Mean absolute Neutrophil count [3, 5]: 4.88 1000 per cu mm | Mean ALT [3, 6]: 21.4 | Mean Serum creatinine [3, 6]: 1.3 mg/dL | Mean absolute Neutrophil count [3, 6]: 4.59 1000 per cu mm | Mean ALT [3, 7]: 19.6 | Mean Serum creatinine [3, 7]: 1.4 mg/dL | Mean absolute Neutrophil count [3, 7]: 3.46 1000 per cu mm | Mean ALT [3, 8]: 18.2 | Mean Serum creatinine [3, 8]: 1.4 mg/dL | Mean absolute Neutrophil count [3, 8]: 4.42 1000 per cu mm | Mean Serum creatinine ([3]; stem cell transplant subjects, 40 mg/wk×5, Day 0): 0.93 mg/dL | Mean ALT [3, 9]: 32.7 | Mean absolute Neutrophil count [3, 9]: 4.40 1000 per cu mm | Mean ALT [3, 10]: 17 | Mean Serum creatinine [3, 10]: 1.0 mg/dL | Mean absolute Neutrophil count [3, 10]: 4.40 1000 per cu mm | Mean ALT [3, 11]: 17.5 | Mean Serum creatinine [3, 11]: 0.9 mg/dL | Mean absolute Neutrophil count [3, 11]: 3.55 1000 per cu mm | Mean ALT [3, 12]: 21.0 | Mean Serum creatinine [3, 12]: 0.9 mg/dL | Mean absolute Neutrophil count [3, 12]: 3.50 1000 per cu mm | Mean ALT [3, 13]: 20.0 | Mean Serum creatinine [3, 13]: 1.2 mg/dL | Mean absolute Neutrophil count [3, 13]: 3.15 1000 per cu mm
